Data as given in patent US9872874B2 (Cyclacel Limited, priority 2012, dated 2018).

Columns and labels:
H2AX staining = assay: Skin biopsies to assess DNA damage (H2AX staining) in the Phase I study; assay type: in vivo, patients
Protocol: (§1) At least 3 patients were evaluated per dose level.

A549 cells = conditions: twenty-four hour treatment; cited from earlier work
[1] = Phase I study of sequential sapacitabine and seliciclib, Schedule 2: dose escalation, MTD, DLT and adverse events; assay type: in vivo; conditions: Schedule 2: sapacitabine b.i.d. days 1-7, seliciclib b.i.d. days 8-10, 11 days of rest; 27 patients
Protocol: Phase I Study of Sequential Sapacitabine and Seliciclib in Patients with Advanced Solid Tumors
as §1

colon cancer = conditions: model of colon cancer, compared with gemcitabine or 5-FU; cited from earlier work
[2] = phase I, single agent; cited from earlier work

SMILES	further increase in H2AX staining post-seliciclib (H2AX staining; day 11 vs day 8, n=12, P=0.069)	expression of key genes involved in HR (BRCA1 and RAD50) and NHEJ (Ku80, DNA-PK and NHEJ1) (A549 cells)	MTD and recommended phase II dose (RP2D) [1]	increase in H2AX staining post-sapacitabine (H2AX staining; day 8 vs pre-treatment, n=16, P=0.007)	increasing survival and preventing spread of colon cancer metastases to the liver (colon cancer)	dose limiting toxicity [2]	tolerability in humans [2]
CC[C@H](CO)Nc1nc(NCc2ccccc2)c2ncn(C(C)C)c2n1 [seliciclib, 6-benzylamino-2-[(R)-1-ethyl-2-hydroxyethylamino]-9-isopropylpurine]	0.58 fold	significant downregulation	1200 mg b.i.d.	–	–	–	–
CCCCCCCCCCCCCCCC(=O)Nc1ccn(C2O[C@H](CO)[C@@H](O)[C@@H]2C#N)c(=O)n1 (stereo partly drawn) [sapacitabine, 1-(2-C-cyano-2-dioxy-β-D-arabino-pentofuranosyl)-N^4-palmitoyl cytosine]	–	–	50 mg b.i.d.	2.3 fold	superior to either gemcitabine or 5-FU	myelosuppression	well tolerated
